Assay results taken from US20100016357A1, “Use of Beta-Aminoalcohols for the Treatment of Inflammatory Disorders and Pain” (SOSEI R & D LTD., priority 2006, published 2010).

Key:
Beta2 = target: T1, Beta2 (Cavia porcellus, UniProt Q8K4Z4); experiment: Beta2 Agonism Functional Assay (inhibition of carbachol-stimulated tracheal muscle twitch); format: cell-based; details: Guinea-pig trachea ring preparations contracted with carbachol
T1 construct: from tissue; host or cells: guinea-pig trachea rings
Procedure: Guinea-pig trachea ring preparations were suspended in Kreb's solution containing indomethacin. […] Beta2 agonism for each test compound was determined by its dose-dependant inhibition of carbachol-stimulated tracheal muscle twitch.

[1] = tested on: LPS-induced TNFα and IL1β cytokine production; experiment: LPS Mouse Assay (serum cytokines by ELISA); format: in vivo, Balb C ByJ mice; details: mice, i.p. or oral, 30 minutes before 1 mg/kg LPS i.p.; serum 2 hours after LPS
Procedure: 7 week old Balb C ByJ mice (24-28 g) were administered, either by i.p. (5 ml/kg) or oral (10 ml/kg) administration, with vehicle or test article. 30 minutes later these animals were challenged with an intraperitoneal injection of 1 mg/kg LPS. 2 hours after LPS challenge blood samples were collected under light isoflurane anaesthesia into normal tubes by retro-orbital puncture. Samples were allowed to clot at room temperature and then spun at 6000 g for 3 min at 4° C. Serum was stored at −20° C. until use. Serum TNFα and IL-10 levels were analysed in duplicate by ELISA technique.

T1 sequence (Q8K4Z4 whole entry): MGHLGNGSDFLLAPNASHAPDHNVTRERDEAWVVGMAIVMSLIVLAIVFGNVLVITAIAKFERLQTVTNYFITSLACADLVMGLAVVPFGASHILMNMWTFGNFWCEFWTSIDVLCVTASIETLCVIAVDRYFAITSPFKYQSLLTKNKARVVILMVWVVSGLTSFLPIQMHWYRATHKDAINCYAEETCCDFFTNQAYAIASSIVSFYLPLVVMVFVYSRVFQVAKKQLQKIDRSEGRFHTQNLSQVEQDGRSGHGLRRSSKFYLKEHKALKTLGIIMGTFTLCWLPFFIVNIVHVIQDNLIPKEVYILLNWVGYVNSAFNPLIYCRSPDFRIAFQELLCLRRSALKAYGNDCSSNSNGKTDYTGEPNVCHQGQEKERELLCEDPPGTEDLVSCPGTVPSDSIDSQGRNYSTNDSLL

Structure (SMILES)	beta2 agonism (in words) (Beta2)	IC50 (Beta2; inhibition of tracheal muscle twitch) [nM]	effect on LPS-induced IL1β production [1]	effect on LPS-induced TNFα production [1]
Nc1c(Cl)cc(C(O)C2CCCCN2)cc1Cl (single isomer, unassigned) [Compound 7, Erythro-(3,5-dichloro-4-amino-phenyl)-piperidin-2-yl-methanol]	poor, beta2 agonists	> 2000	had effects	had effects
Nc1c(Cl)cc(C(O)C2CCCCN2)cc1Cl (single isomer, unassigned) [Compound 8, (Erythro)-(3,5-dichloro-4-amino-phenyl)-piperidin-2-yl-methanol]	poor, beta2 agonists	–	had effects	had effects
Nc1c(Cl)cc(C(O)C2CCCCN2)cc1Cl (single isomer, unassigned) [Compound 10, Threo-(3,5-dichloro-4-amino-phenyl)-piperidin-2-yl-methanol]	poor, beta2 agonists	–	had effects	had effects
Nc1c(Cl)cc(C(O)C2CCCCN2)cc1Cl (single isomer, unassigned) [Compound 11, Threo-(3,5-Dichloro-4-amino-phenyl)-piperidin-2-yl-methanol]	poor, beta2 agonists	–	had effects	had effects
